Experimental data reported in patent publication US6774235B2, “Trisubstituted 1,3,5-triazine derivatives” (Janssen Pharmaceutica N.V., priority 1998, dated 2004).
Like-named read-outs stand apart in the source and are kept apart here.

Assays:
HIV-1 (wildtype IIIB) = assay: microbe, parasite or virus in culture; format: cell-based; settings: dose achieving 50% protection of HIV-1 (IIIB) infected MT-4 cells, MTT, OD 540 nm
Description: (§1) A rapid, sensitive and automated assay procedure was used for the in vitro evaluation of anti-HIV agents. An HIV-1 (wildtype IIIB) transformed T4-cell line, MT-4, which was previously shown (Koyanagi et al., Int. J Cancer, 36, 445-451, 1985) to be highly susceptible to and permissive for HIV infection, served as the target cell line. Inhibition of the HIV-induced cytopathic effect was used as the end point. […] The percent protection achieved by the compound in HIV-infected cells was calculated by the following formula: [formula]
(§2) whereby (ODT)HIV is the optical density measured with a given concentration of the test compound in HIV-infected cells; (ODC)HIV is the optical density measured for the control untreated HIV-infected cells; (ODC)MOCK is the optical density measured for the control untreated mock-infected cells; all optical density values were determined at 540 nm. […] The ratio of CC50 to IC50 was defined as the selectivity index (SI).

MT-4 = assay: Cytotoxicity in mock-infected MT-4 cells (MTT)
Description: as §1, §2

[1] = Cytotoxicity in mock-infected MT-4 cells (MTT); settings: human, mock-infected MT-4 cells
Description: as §1, §2

[2] = Human immunodeficiency virus 1, MT4
[3] = concentration reducing absorbance of mock-infected MT-4 control by 50%, MTT

Row | SMILES | IC50 (HIV-1 (wildtype IIIB)) | IC50 (HIV-1 (wildtype IIIB); [2]) | CC50 (MT-4) | CC50 [1] | CC50 (MT-4; [3])
1 | N#Cc1ccc(Nc2nc(N)nc(Oc3c(Cl)cccc3Cl)n2)cc1 [Compound 1] | 3 nM | – | > 20000 nM | – | –
2 | Cc1ccc(C)c(Oc2nc(N)nc(Nc3ccc(C#N)cc3)n2)c1 [Compound 2, 4-[[4-amino-6-(2,5-dimethylphenoxy)-1,3,5-triazin-2-yl]amino]benzonitrile] | – | 3 nM | – | 34900 nM | –
3 | N#Cc1ccc(Nc2nc(NO)nc(Nc3c(Cl)cccc3Cl)n2)cc1 [Compound 4, 4-[[[6-(2,6-dichlorophenylamino)-4-(hydroxylamino)]-1,3,5-triazin-2-yl]amino]-benzonitrile] | 2 nM | – | 8000 nM | – | –
4 | Cc1cccc(C)c1Nc1nc(NO)nc(Nc2ccc(C#N)cc2)n1 [Compound 5] | 2 nM | – | 7800 nM | – | –
5 | Cc1cccc(Cl)c1Nc1nc(N)nc(Nc2ccc(C#N)cc2)n1 [Compound 7, 4-[[4-amino-6-[(2-chloro-6-methylphenyl)amino]-1,3,5-triazin-2-yl]amino]benzonitrile] | – | 5 nM | – | 49900 nM | –
6 | Cc1cccc(C(C)C)c1Nc1nc(N)nc(Nc2ccc(C#N)cc2)n1 [Compound 8] | 165 nM | – | 9300 nM | – | –
7 | N#Cc1ccc(Nc2nc(N)nc(Nc3c(Cl)cccc3Cl)n2)cc1 [Compound 10] | 3 nM | – | 6100 nM | – | –
8 | Cc1cc(C)c(Nc2nc(NO)nc(Nc3ccc(C#N)cc3)n2)c(C)c1 [Compound 11, 4-[[4-(hydroxyamino)-6-[(2,4,6-trimethylphenyl)amino]-1,3,5-triazin-2-yl]amino]-benzonitrile] | – | 1 nM | – | 6300 nM | –
9 | CCc1cccc(CC)c1Nc1nc(N)nc(Nc2ccc(C#N)cc2)n1 [Compound 12] | 21 nM | – | 30000 nM | – | –
10 | CC(=O)c1ccc(C)cc1Nc1nc(N)nc(Nc2ccc(C#N)cc2)n1 [Compound 13] | 259 nM | – | > 100000 nM | – | –
11 | Cc1cc(C)c(Nc2nc(N)nc(Nc3ccc(C#N)cc3)n2)c(C)c1Br [Compound 15] | 3 nM | – | 1700 nM | – | –
12 | CCc1cccc(C)c1Nc1nc(N)nc(Nc2ccc(C#N)cc2)n1 [Compound 16, 4-[[4-amino-6-[(2-ethyl-6-methylphenyl)amino]-1,3,5-triazin-2-yl]amino]benzonitrile] | – | 6 nM | – | 8100 nM | –
13 | N#Cc1ccc(Nc2nc(N)nc(Nc3c(F)cc(F)cc3Br)n2)cc1 [Compound 17] | 3 nM | – | 53800 nM | – | –
14 | N#Cc1ccc(Nc2nc(N)nc(Nc3c(Cl)cc(Cl)cc3Cl)n2)cc1 [Compound 18] | 8 nM | – | 45600 nM | – | –
15 | N#Cc1ccc(Nc2nc(N)nc(Sc3c(Cl)cccc3Cl)n2)cc1 [Compound 19, 4-[[4-amino-6-[(2,6-dichlorophenyl)thio]-1,3,5-triazin-2-yl]amino]benzonitrile] | – | 4 nM | – | 40600 nM | –
16 | N#Cc1ccc(Nc2nc(NO)nc(Sc3c(Cl)cccc3Cl)n2)cc1 [Compound 20] | 3 nM | – | 11700 nM | – | –
17 | N#Cc1ccc(Nc2nc(N)nc(NNc3c(Cl)cc(Cl)cc3Cl)n2)cc1 [Compound 21] | 1 nM | – | 27800 nM | – | –

Row | SMILES | IC50 (HIV-1 (wildtype IIIB)) | IC50 (HIV-1 (wildtype IIIB); [2]) | CC50 (MT-4) | CC50 [1] | CC50 (MT-4; [3])
18 | N#Cc1ccc(Nc2nc(N)nc(NNc3c(Cl)cccc3Cl)n2)cc1 [Compound 22] | 3 nM | – | > 100000 nM | – | –
19 | N#Cc1ccc(Nc2nc(NO)nc(Nc3c(Cl)cc(Cl)cc3Cl)n2)cc1 [Compound 23, 4-[[4-(hydroxyamino)-6-[(2,4,6-trichlorophenyl)amino]-1,3,5-triazin-2-yl]amino]-benzonitrile] | – | 1 nM | – | 7600 nM | –
20 | Cc1ccc(Cl)c(C)c1Nc1nc(N)nc(Nc2ccc(C#N)cc2)n1 [Compound 28] | 5 nM | – | 42800 nM | – | –
21 | N#Cc1ccc(Nc2nc(N)nc(Oc3c(Cl)cc(Cl)cc3Cl)n2)cc1 [Compound 30] | 2 nM | – | 63500 nM | – | –
22 | Cc1ccc(Cl)c(C)c1Nc1nc(NO)nc(Nc2ccc(C#N)cc2)n1 [Compound 31] | 5 nM | – | 9900 nM | – | –
23 | Cc1cc(Cl)cc(Cl)c1Oc1nc(N)nc(Nc2ccc(C#N)cc2)n1 [Compound 34] | 1 nM | – | 4800 nM | – | –
24 | N#Cc1ccc(Nc2nc(N)nc(Oc3ccc(Cl)cc3Cl)n2)cc1 [Compound 38] | 7 nM | – | > 100000 nM | – | –
25 | CC(=O)c1cc(Cl)cc(Cl)c1Oc1nc(N)nc(Nc2ccc(C#N)cc2)n1 [Compound 39] | > 10000 nM | – | < 10000 nM | – | –
26 | N#Cc1ccc(Nc2nc(N)nc(Oc3c(Cl)c(Cl)c(Cl)c(Cl)c3Cl)n2)cc1 [Compound 42] | 33 nM | – | > 10000 nM | – | –
27 | N#Cc1ccc(Nc2nc(N)nc(Oc3c(Cl)ccc(Cl)c3Cl)n2)cc1 [Compound 43] | 9 nM | – | 43900 nM | – | –
28 | N#Cc1ccc(Nc2nc(N)nc(Oc3c(F)cc(F)cc3F)n2)cc1 [Compound 44] | 5 nM | – | > 100000 nM | – | –
29 | N#Cc1ccc(Nc2nc(N)nc(Oc3c(Cl)cc(F)cc3Cl)n2)cc1 [Compound 45] | 7 nM | – | 52900 nM | – | –
30 | COc1cccc(OC)c1Oc1nc(N)nc(Nc2ccc(C#N)cc2)n1 [Compound 46] | 31 nM | – | > 100000 nM | – | –
31 | COc1cc(C#N)ccc1Oc1nc(N)nc(Nc2ccc(C#N)cc2)n1 [Compound 47] | 75 nM | – | > 100000 nM | – | –
32 | Cc1c(Cl)c(C)c(Br)c(Oc2nc(N)nc(Nc3ccc(C#N)cc3)n2)c1Br [Compound 48] | 19 nM | – | 8700 nM | – | –
33 | Cc1cc(C)c(N=Nc2nc(N)nc(Nc3ccc(C#N)cc3)n2)c(C)c1 [Compound 69, 4-[[4-amino-6-[(2,4,6-trimethylphenyl)azo]-1,3,5-triazin-2-yl]aamino]benzonitrile] | 65 nM | – | – | – | > 99900 nM
34 | N#Cc1ccc(Nc2nc(N)nc(Oc3c(F)c(F)c(O)c(F)c3F)n2)cc1 [Compound 80] | 85500 nM | – | – | – | > 85500 nM

Continued, in another order:

Row | IC50 (HIV-1 (wildtype IIIB)) | IC50 (HIV-1 (wildtype IIIB); [2]) | SMILES | CC50 (MT-4) | CC50 [1] | CC50 (MT-4; [3])
35 | 76 nM | – | CC(=O)c1cc(F)cc(F)c1Oc1nc(N)nc(Nc2ccc(C#N)cc2)n1 [Compound 49] | > 99900 nM | – | –
36 | 59 nM | – | Cc1c(Br)c(C)c(Br)c(Oc2nc(N)nc(Nc3ccc(C#N)cc3)n2)c1Br [Compound 50] | 8100 nM | – | –
37 | 3 nM | – | Cc1cc(Cl)c(C)c(C)c1Oc1nc(N)nc(Nc2ccc(C#N)cc2)n1 [Compound 52] | 1900 nM | – | –
38 | 17 nM | – | Cc1c(C)c(Oc2nc(N)nc(Nc3ccc(C#N)cc3)n2)c(Cl)c(C)c1Cl [Compound 53] | 2500 nM | – | –
39 | 4 nM | – | N#Cc1ccc(Nc2nc(N)nc(Sc3ccc(F)cc3Cl)n2)cc1 [Compound 55] | > 99900 nM | – | –
40 | 5 nM | – | N#Cc1ccc(Nc2nc(N)nc(Sc3cc(Cl)c(Cl)cc3Cl)n2)cc1 [Compound 56] | 62600 nM | – | –
41 | 15 nM | – | N#Cc1ccc(Nc2nc(N)nc(Sc3ccc(F)cc3F)n2)cc1 [Compound 57] | > 100000 nM | – | –
42 | 3 nM | – | Cc1cc(C)c(Sc2nc(N)nc(Nc3ccc(C#N)cc3)n2)c(C)c1 [Compound 58] | 47100 nM | – | –
43 | 2 nM | – | Cc1ccc(Sc2nc(N)nc(Nc3ccc(C#N)cc3)n2)c(C)c1 [Compound 59] | 48500 nM | – | –
44 | 3 nM | – | Cc1cc(I)cc(C)c1Oc1nc(N)nc(Nc2ccc(C#N)cc2)n1 [Compound 60] | 45500 nM | – | –
45 | 5 nM | – | Cc1cc(C)c(Nc2nc(N)nc(Nc3ccc(C#N)cc3)n2)c(C)c1N [Compound 61] | 94600 nM | – | –
46 | 3 nM | – | Cc1ccc(Oc2nc(N)nc(Nc3ccc(C#N)cc3)n2)c(C)c1 [Compound 62] | 51600 nM | – | –
47 | 14 nM | – | CCc1cc(Br)cc(CC)c1Nc1nc(N)nc(Nc2ccc(C#N)cc2)n1 [Compound 64] | 46500 nM | – | –
48 | 96 nM | – | Cc1cc(Nc2nc(N)nc(Nc3ccc(C#N)cc3)n2)c(Cl)cc1F [Compound 66] | > 99900 nM | – | –
49 | 111 nM | – | N#Cc1ccc(Nc2nc(N)nc(Nc3c(F)c(F)c(F)c(F)c3F)n2)cc1 [Compound 67] | 45600 nM | – | –
50 | 15 nM | – | COc1cc(OC)c(Nc2nc(N)nc(Nc3ccc(C#N)cc3)n2)c(OC)c1 [Compound 68] | 63900 nM | – | –
51 | 3 nM | – | N#Cc1ccc(Nc2nc(N)nc(Nc3c(Cl)cc(C(F)(F)F)cc3Cl)n2)cc1 [Compound 70] | 15600 nM | – | –
52 | 2 nM | – | N#Cc1ccc(Nc2nc(N)nc(Nc3c(Br)cc(Br)cc3Br)n2)cc1 [Compound 72] | 6500 nM | – | –
53 | 190 nM | – | Cc1cc(Br)c(Nc2nc(Nc3ccc(C#N)cc3)nc(Nc3ccc(C#N)cc3)n2)c(Br)c1 [Compound 74, N,-[6-[(2,6-dibromo-4-methylphenyl)amino]-1,3,5-triazine-2,4-diyl]bis[4-amino-benzonitrile]] | 7000 nM | – | –
54 | 378 nM | – | CC(C)c1cc(Br)c(Nc2nc(Nc3ccc(C#N)cc3)nc(Nc3ccc(C#N)cc3)n2)c(Br)c1 [Compound 75] | 37800 nM | – | –
55 | 7830 nM | – | Cc1cc(N)cc(C)c1Oc1nc(N)nc(Nc2ccc(C#N)cc2)n1 [Compound 78] | 47000 nM | – | –
56 | 2680 nM | – | Cc1c(Cl)cc(N)c(Oc2nc(N)nc(Nc3ccc(C#N)cc3)n2)c1Cl [Compound 81] | > 99100 nM | – | –
57 | 1490 nM | – | COC(=O)c1cc(OC)c(OC)c(OC)c1Nc1nc(N)nc(Nc2ccc(C#N)cc2)n1 [Compound 82] | 99600 nM | – | –
